Laboratory results as given in US10471025B2, “Compositions for use in treating parkinson's disease and related disorders” (Technophage, Investigação E Desenvolvimento Em …, priority 2015, dated 2019).
Structures can show the parent of a compound that is named as a salt. Where two headings read alike, the source gives them in different places.

How the values were obtained:
[1] = test system: 6-OHDA treated zebrafish larvae; assay: LD50 / lethality in the disease context of the zebrafish model
6-OHDA mouse model [2] = format: in vivo; conditions: for Gait test: maximum velocity, mean velocity, percentage of time resting or moving fast: tapentadol hydrochloride 8 or 15 mg/kg/day, hydrochloride
Description: That is, tapentadol hydrochloride C1 concentration dosage was increased to 8 mg/kg/day and tapentadol hydrochloride C3 concentration dosage was increased to 15 mg/kg/day. The gait test plan is illustrated in FIGS. 24A-24B.
To better observe the movement pattern of mice ̆s limbs, a new device was engineered similar to that used in a beam test, but with a closed corridor and a door. The apparatus was transparent with two home-cages at the extremities, one at the entrance that is transparent and another on the opposite end that is black. Each test was repeated 5 times and the 3 more consistent trials were selected for paw placement analysis. Data was recorded by 3 different cameras: on the bottom, top, and side of the corridor. Each camera allowed measurement of a different gait parameter. Specifically, the bottom camera allowed measurement, through the base of the support, of the hind paw distance and hind paw angle. The top camera allowed measurement of different parameters at distinct zones^—in the green area (most of the length of the apparatus), maximum and mean velocity, percentage of time resting/moving slow/moving fast, and time to the door were measured; the dark blue area provided a lag zone; and in the yellow area (area in front of the door), the permanence time before the door, mean velocity before the door, and latency to cross the door were measured. The side camera was used to analyze mice posture.

[3] = test system: cytochrome P450 (CY P) isoenzymes; conditions: cited from earlier work
[4] = test system: 6-OHDA treated zebrafish larvae; assay: Freezing (duration of freezing periods, light/dark stimulus) in 6-OHDA zebrafish larvae; format: in vivo; conditions: tapentadol 48.5, stavudine 50, nabumetone 0.91 μM; L-Dopa treatment
Description: In the zebrafish model, the locomotor impairment was measured and related with bradykinesia in patients. Tests included evaluating ‘freezing_ in response to a light/dark stimulus. 6-OHDA induced larvae had fewer freezing episodes but spent longer periods in the frozen state. In previous studies, the duration of freezing episodes has been analyzed in PD patients. […] Nonetheless, it is an inhibitor of the neuronal dopamine transporter and since 6-OHDA needs DAT to enter the neuron and induce the disease, methylphenidate may be a false positive.
As FIGS. 9B-9C show, freezing recovery was tested using 7 candidate molecules at optimal concentrations, in an exemplary experiment with n=8 fish, and methylphenidate and amantadine at 25 ? M.

6-OHDA mouse model [5] = assay: Rotarod test, unilateral striatal 6-OHDA mice (Example 5); format: in vivo
healthy wild type mice = assay: Toxicity assay, welfare and necropsy (Example 6); conditions: 24 h
Description: Their behavior was evaluated with open field tests for 1 h after i.p. injection. After 24 h, animals were sacrificed and necropsy was performed
9 week old NMRI female mice were used for this assay. Animals were tested for their welfare after two intraperitoneal injections of the test agents using the open field test. Necropsy was done after cervical dislocation. […] Benserazide at 12 mg/kg was administered 30 minutes prior to administration of these compounds, in all groups. Saline was given to the control group.
After benserazide administration, animals were monitored in the open field for 30 minutes for habituation. […] 24 hours after administration of the compounds, the animals were sacrificed and necropsy performed.
For administration of the various agents to the animals, two 700 ? L injections were administered 30 minutes apart.

[6] = IV, rats; cited from earlier work
rat = conditions: cited from earlier work
[7] = test system: 6-OHDA treated zebrafish larvae; assay: Locomotor behavior rescue (total distance moved, number of jumps) in 6-OHDA zebrafish PD model; format: in vivo
Excerpt: To model Parkinson ̆s disease (PD), a neurotoxin 6-OHDA (6-hyroxydopamine) based method was used in zebrafish and in mice. In this model, 6-OHDA-lesions induce motor manifestations in zebrafish and in mice, such as reduced locomotor ability, and the loss of dopaminergic neurons. Based on the 6-OHDA PD zebrafish model, compounds from a small molecules library were screened for rescue of the parkinsonian phenotype (Example 1, see below).
The screen was based on both the recovery of impaired locomotor behavior and dopaminergic neuronal loss.
Values were normalized for the mean of disease state in each experiment (disease=1). Each plot contains data from 3 independent experiments with a total of 24 larvae. As a control, zebrafish were treated with only the vehicle, ascorbic acid.
For these experiments, Tubingen (TU) wild-type zebrafish, a specific strain of wild-type zebrafish, were used.

[8] = chronic dosing; cited from earlier work
[9] = cited from earlier work; for Bioavailability: 86 mg
[10] = after a high-fat, high-calorie breakfast

## CC[C@@H](c1cccc(O)c1)[C@@H](C)CN(C)C [tapentadol, tapentadol hydrochloride]
[1]; 6-OHDA disease-induced zebrafish larvae
  LD50: 8079 | M
[1]; 6-OHDA zebrafish larvae
  LD50: 8,079 μM
6-OHDA mouse model [2]; 21 dpi, L-Dopa ON period
  Gait test: all parameters measured: no significant improvement
6-OHDA mouse model [2]; 29 dpi, L-Dopa OFF period
  Gait test: permanence time before the door, latency to cross the door, mean velocity before the door: behavioral recovery
6-OHDA mouse model [2]; 29 dpi, L-Dopa OFF period, listed as Tapentadol hydrochloride
  Gait test: maximum velocity, mean velocity, percentage of time resting or moving fast: behavioral recovery
6-OHDA mouse model [2]; 29 dpi, L-Dopa OFF period, listed as tapentadol hydrochloride
  Gait test: maximum velocity, mean velocity, percentage of time resting or moving fast: ameliorated
[3]
  Induction of CYP isoenzymes: no significant induction
[4]
  Duration of freezing periods, recovery vs 6-OHDA treated larvae: not recovered
6-OHDA mouse model [5]; C1 2.8 mg/kg/day i.p., 8 and 15 days post lesion
  Rotarod: latency to fall and speed, recovery: best recovery between groups, although not significant
6-OHDA mouse model [5]; daily i.p., dosages tested (C1 and C2)
  Rotarod: latency to fall and speed, recovery: behavioral recovery over time
Healthy wild type mice; tapentadol C1 8.3 mg/kg in combination with L-Dopa
  Necropsy findings: Two of the three animals treated with tapentadol C1 concentration had a slight hyperemia in the small intestine
Healthy wild type mice; tapentadol C3 15 mg/kg in combination with L-Dopa
  Necropsy findings: One of the three animals treated with tapentadol C3 concentration had an intestinal congestion
[6]
  Dose with suspected proconvulsion effect: 6 mg/kg
rat; intravenous administration, rats
  LD50: 45 mg/kg
rat; oral administration, rat
  LD50: 980 mg/kg
[7]; 6-OHDA zebrafish larvae
  Therapeutic window: 20 to 113 µM
[7]; 7 candidate molecules, 3 independent experiments
  Locomotor behavior rescue (total distance moved, number of jumps), confirmation of screen: strong candidates
[7]; behavioral experiments and TH+ cell counts
  Optimal concentration: 48.5 µM
[7]; tapentadol 48.5, stavudine 50, nabumetone 0.456 and 0.91 μM, n=8 fish
  Total distance travelled, difference between treated larvae and disease control: ~200 mm
[7]; zebrafish, in vivo
  Number of jumps: concentration validated as recovering the 6-OHDA induced behavior: 56.25 µM
[8]
  Hepatic hypertrophy: present in all animal species
[9]; 100 mg radiolabelled oral dose
  Conjugated form among related compounds excreted in the urine: 69%
  Drug recovered in 5 days: 99.9%
  Excreted via urine: 99%
  Exposure to the conjugates, of the total: approximately 64%
  Other forms of metabolites among related compounds excreted in the urine: 27%
  Parent drug among related compounds excreted in the urine: 3%
  Total dose excreted within 24 hours: 95%
  Total drug excreted in the feces: Approximately 1%
[9]; ER
  Cmax: 22.5 ng/mL
[9]; IR
  Cmax: 64.2 ng/mL
  Tmax: 1.5 h
[9]; [10]
  Increase of AUC with food: 25%
  Increase of Cmax with food: 16%
[9]; after oral administration
  Elimination half-life: 4 h
[9]; by CY P2C9 and CY P2C19
  Metabolized to N-desmethyl tapentadol: 13%
[9]; by CY P2D6
  Metabolized to hydroxy tapentadol: 2%
[9]; extended release (ER)
  Bioavailability: 32%
[9]; geriatric patients
  Lower mean Cmax in elderly vs young adult subjects: 16%
[9]; humans
  Parent compound metabolized: about 97%
[9]; immediate release (IR)
  Bioavailability: 32%
[9]; in vivo
  Drug excreted in urine as unchanged drug: 3%
  Excretion via the kidneys (tapentadol and its metabolites): 99%
  Total clearance: 1530 ± 177 mL/min
[9]; intravenous administration, hydrochloride
  Volume of distribution (Vz): 540 ± 98 L
[9]; mild hepatic impairment (Child-Pugh Score 5 to 6)
  AUC ratio vs normal hepatic function: 1.7
[9]; mild hepatic impairment
  Cmax ratio vs normal hepatic function: 1.4
  t1/2 ratio vs normal hepatic function: 1.2
[9]; moderate hepatic impairment (Child-Pugh Score 7 to 9)
  AUC ratio vs normal hepatic function: 4.2
[9]; moderate hepatic impairment
  Cmax ratio vs normal hepatic function: 2.5
  t1/2 ratio vs normal hepatic function: 1.4
[9]; multiple (every 6 hour) dose study, 75 to 175 mg tapentadol
  Mean accumulation factor: 1.6
[9]; oral
  Time of maximum serum concentrations after dosing: around 1.25 hours
[9]; single-dose administration (fasting)
  Mean absolute bioavailability: approximately 32%
[9]; urine
  Dose excreted as O-glucuronide: 55%
  Dose excreted as sulfate of tapentadol: 15%
